This is an account of results in US20120157494A1, “ISOINDOLYL COMPOUNDS” (priority 2010, published 2012).

One data set has as its target T1, hP2X7 (Homo sapiens, UniProt Q99572).
T1 construct: 1321N1 cells stably expressing the full length human P2X7 gene (1321N1-hP2X7); expressed in transfected cells
T1 sequence (Q99572 1-595): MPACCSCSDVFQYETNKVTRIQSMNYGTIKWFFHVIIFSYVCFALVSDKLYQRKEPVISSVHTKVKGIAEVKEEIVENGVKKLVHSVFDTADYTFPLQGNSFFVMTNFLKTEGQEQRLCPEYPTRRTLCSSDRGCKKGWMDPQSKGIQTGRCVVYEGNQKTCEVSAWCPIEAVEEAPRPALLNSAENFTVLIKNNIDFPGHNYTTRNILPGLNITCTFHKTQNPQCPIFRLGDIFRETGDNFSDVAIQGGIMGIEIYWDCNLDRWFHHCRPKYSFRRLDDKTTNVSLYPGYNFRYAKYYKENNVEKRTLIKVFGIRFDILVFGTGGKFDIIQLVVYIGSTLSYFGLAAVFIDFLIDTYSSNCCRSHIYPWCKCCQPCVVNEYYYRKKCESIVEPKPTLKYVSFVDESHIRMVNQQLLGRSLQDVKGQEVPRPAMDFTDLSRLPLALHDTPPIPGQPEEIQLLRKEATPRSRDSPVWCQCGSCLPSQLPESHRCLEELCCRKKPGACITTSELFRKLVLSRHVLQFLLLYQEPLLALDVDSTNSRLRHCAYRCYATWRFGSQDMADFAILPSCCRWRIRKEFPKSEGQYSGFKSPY
Kind of data set: Intracellular Calcium Flux (FLIPR) Assay. To be noted: 1321N1 cells stably expressing human P2X7; agonist 100 μM BzATP; 20 min equilibration with antagonist; read-out: FLIPR pIC50 hP2X7-1321n1 (converted). In kind it is cell-based. How it is done:
Stock solutions of compounds were prepared from powders as a 10 mM DMSO stock solution. These solutions were stored at RT during the two week period of these experiments to prevent freeze-thaw of the DMSO stocks. The DMSO stocks were added to the appropriate assay buffer at a concentration of 10 μM, and then diluted serially to the final concentrations that were tested. No observable precipitate was formed at any time during this process. The aqueous solutions of compounds as well as ATP (Sigma A7699) and BzATP (Sigma B6396) were prepared fresh for each day of experiment.
1321N1 cells stably expressing the full length human P2X7 gene (1321N1-hP2X7) and HEK293 cells stably expressing the full length rat P2X7 gene (HEK293-rP2X7) were obtained from the Roche Cell Culture Facility. 1321N1-hP2X7 cells were grown in Dulbecco's Modified Eagle's Medium (DMEM) high glucose supplemented with 10% FBS and 250 μg/mL G418. HEK293-rP2X7 cells were grown in DMEM/F-12 supplemented with 10% FBS, 1 mM CaCl2, 2 mM MgCl2, 2 mM L-Glutamine and 500 μg/ml G418. Cells were split such that they never became >70% confluent.
On the day prior to the experiment, 1321N1-hP2X7 or HEK293-rP2X7 cells were released into suspension with calcium-free PBS+Versene and washed by centrifugation with calcium-free PBS to remove the Versene. Cells were resuspended in growth medium at a density of 2.5×10^5 cells/mL and seeded into black walled, clear bottom 96 well plates (50,000 cells/well) approximately 18 hr prior to intracellular calcium flux experiments.
On the day of the experiment, plates were washed with FLIPR buffer (calcium- and magnesium-free Hank's Balanced Salt Solution (HBSS) supplemented with 10 mM Hepes, 2.5 mM probenecid and 2 mM calcium chloride) using a BIO-TEK 96 channel plate washer and incubated with […] fluo-3 dye at 37° C. for one hr. The dye was then removed by plate washing and the cells were allowed to equilibrate for 20 min at room temperature with antagonist or vehicle (FLIPR buffer). Agonist (100 μM BzATP final concentration for hP2X7; 5 μM BzATP final concentration or rP2X7) was added online with the FLIPR and fluorescence measurements made at 1 sec intervals for 60 sec followed by 3 sec intervals for a further 4 min (5 min total). A final addition of 5 μM ionomycin was made and the maximal BzATP-evoked fluorescence normalized to the maximal ionomycin-evoked fluorescence.
Background: A change in cytosolic calcium serves as a functional read-out for many receptors and channels.

For `CS(=O)(=O)c1ccccc1CNC(=O)[C@@H]1CCCN(c2cccc3c2C(=O)N(Cc2ccncc2)C3=O)C1` [Compound I-16, (R)-1-(1,3-Dioxo-2-pyridin-4-ylmethyl-2,3-dihydro-1H-isoindol-4-yl)-piperidine-3-carboxylic acid 2-methanesulfonyl-benzylamide], the melting point (in general, the temperature of the solid-liquid transition) is 101 to 102 °C. Also, the IC50 on hP2X7 is 204 nM.

In turn, `COCC(C)N1Cc2c(NC(=O)Cc3ccc(F)c(C(F)(F)F)c3)cccc2C1=O` (stereo not drawn) [Compound I-19, 2-(4-Fluoro-3-trifluoromethyl-phenyl)-N-[2-(2-methoxy-1-methyl-ethyl)-1-oxo-2,3-dihydro-1H-isoindol-4-yl]-acetamide] came in with a melting point of 151 to 152 °C. Moreover, the IC50 on hP2X7 is 331 nM.

In turn, `COC[C@@H](C)N1Cc2c(ccc(Cl)c2NC(=O)Cc2ccc(F)c(C(F)(F)F)c2)C1=O` [Compound I-21, N-[5-Chloro-2-((R)-2-methoxy-1-methyl-ethyl)-1-oxo-2,3-dihydro-1H-isoindol-4-yl]-2-(4-fluoro-3-trifluoromethyl-phenyl)-acetamide] registered a melting point of 131 to 132 °C. On hP2X7, the IC50 was 389 nM.
